Data on eleven compounds can be found in patent publication US10752635B2, “Indazole compounds and uses thereof” (Incyte Corporation, priority 2018, dated 2020).

For orientation: Ki means a dissociation constant, usually derived from enzyme kinetics or from competition with a known ligand. A higher Ki goes with weaker binding.

The structures appear in SMILES notation.

HPK1, sequence (Q92918 1-346 limits assumed): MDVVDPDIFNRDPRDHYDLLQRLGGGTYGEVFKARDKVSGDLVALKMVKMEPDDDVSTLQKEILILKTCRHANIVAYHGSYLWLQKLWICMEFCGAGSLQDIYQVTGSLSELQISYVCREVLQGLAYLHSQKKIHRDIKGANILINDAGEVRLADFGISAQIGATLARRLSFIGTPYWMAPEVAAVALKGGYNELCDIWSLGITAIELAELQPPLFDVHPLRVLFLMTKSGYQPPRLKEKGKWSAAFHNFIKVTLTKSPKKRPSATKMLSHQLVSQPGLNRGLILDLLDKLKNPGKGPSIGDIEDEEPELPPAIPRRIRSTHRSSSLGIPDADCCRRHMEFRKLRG

In the experiment the target is HPK1 (Homo sapiens (Human), UniProt Q92918). Put plainly: HPK1 Kinase Binding Assay. To be noted: active HPK1 (SignalChem M23-11G), tracer 222, LanthaScreen Eu-Anti GST antibody, one hour at 25° C. Here is the method:
A stock solution of 1 mM test compound was prepared in DMSO. The compound plate was prepared by 3-fold and 11-point serial dilutions. 0.1 μL of the compound in DMSO was transferred from the compound plate to the white 384 well polystyrene plates. The assay buffer contained 50 mM HEPES, pH 7.5, 0.01% Tween-20, 5 mM MgCl2, 0.01% BSA, and 5 mM DTT. 5 μL of 4 nM active HPK1 (SignalChem M23-11G) prepared in the buffer was added to the plate. The enzyme concentration given was based on the given stock concentration reported by the vender. […] After one hour incubation at 25° C., the plates were read on a PHERAstar FS plate reader (BMG Labtech). Ki values were determined.
`COc1cccc(F)c1-c1nccc(C(=O)Nc2cc(F)c3nn(C)cc3c2-c2ccccc2C)n1` (single isomer, unassigned; peak 1) [14, Peak 1] had an inhibition constant Ki below 100 nM.

`COCCn1ncc2c(N3C[C@@H](N)C[C@H]3CO)c(NC(=O)c3ccnc(-c4c(F)cccc4OC)n3)cc(F)c21` [Example 31, N-(4-((2S,4S)-4-Amino-2-(hydroxymethyl)pyrrolidin-1-yl)-7-fluoro-1-(2-methoxyethyl)-1H-indazol-5-yl)-2-(2-fluoro-6-methoxyphenyl)pyrimidine-4-carboxamide] displayed a Ki below 100 nM.

The compound `COc1cccc(F)c1-c1nccc(C(=O)Nc2cc(F)c3nn(C)cc3c2N2C[C@@H](N)C[C@H]2CO)n1` (single isomer, unassigned; peak 1) [3, Peak 1] showed a Ki below 100 nM.

`COc1cccc(F)c1-c1nccc(C(=O)Nc2cc(F)c3c(cnn3C)c2C2CCNC2)n1` (centres unmarked) [Example 11, N-(7-Fluoro-1-methyl-4-(pyrrolidin-3-yl)-1H-indazol-5-yl)-2-(2-fluoro-6-methoxyphenyl)pyrimidine-4-carboxamide] displayed an inhibitory constant (Ki) below 100 nM.

In turn, `COCCn1ncc2c(N3C[C@@H](N)C[C@H]3CO)c(NC(=O)c3ccnc(-c4c(F)cc(N)cc4OC)n3)cc(F)c21` [Example 38, N-(4-((2S,4S)-4-Amino-2-(hydroxymethyl)pyrrolidin-1-yl)-7-fluoro-1-(2-methoxyethyl)-1H-indazol-5-yl)-2-(4-amino-2-fluoro-6-methoxyphenyl)pyrimidine-4-carboxamide] showed an inhibition constant Ki below 100 nM.

In turn, `COc1cccc(F)c1-c1nccc(C(=O)Nc2cc(F)c3nn(C)cc3c2N2CCOCC2)n1` [7, Peak 1] registered an inhibition constant (Ki) below 100 nM.

In the case of `CNC(=O)c1ccc(OC)c(-c2nccc(C(=O)Nc3cc(F)c4c(cnn4CCOC)c3N3C[C@@H](N)C[C@H]3CO)n2)c1F` [Example 39, N-(4-((2S,4S)-4-Amino-2-(hydroxymethyl)pyrrolidin-1-yl)-7-fluoro-1-(2-methoxyethyl)-1H-indazol-5-yl)-2-(2-fluoro-6-methoxy-3-(methylcarbamoyl)phenyl)pyrimidine-4-carboxamide], the Ki was below 100 nM.

The compound `COc1cccc(F)c1-c1nccc(C(=O)Nc2ccc3c(c(-c4ccccc4)nn3C)c2N2CCC(N(C)C)CC2)n1` [Example 29, N-(4-(4-(Dimethylamino)piperidin-1-yl)-1-methyl-3-phenyl-1H-indazol-5-yl)-2-(2-fluoro-6-methoxyphenyl)pyrimidine-4-carboxamide] displayed a Ki of 100 to 500 nM.

In turn, `COc1cccc(F)c1-c1nccc(C(=O)Nc2ccc3c(c(-c4cnn(C)c4)nn3C)c2N2CCC(N(C)C)CC2)n1` [Example 30, N-(4-(4-(Dimethylamino)piperidin-1-yl)-1-methyl-3-(1-methyl-1H-pyrazol-4-yl)-1H-indazol-5-yl)-2-(2-fluoro-6-methoxyphenyl)pyrimidine-4-carboxamide] had an inhibitory constant (Ki) below 100 nM.

`COc1cccc(F)c1-c1nccc(C(=O)Nc2cc(F)c3c(cnn3C)c2N2CCOCC2)n1` [7, Peak 2] registered a Ki below 100 nM.

The compound `COc1cccc(F)c1-c1nccc(C(=O)Nc2cc(F)c3c(cnn3[C@@H]3CCOC3)c2N2C[C@@H](N)C[C@H]2CO)n1` [Example 32, N-(4-((2S,4S)-4-Amino-2-(hydroxymethyl)pyrrolidin-1-yl)-7-fluoro-1-((R)-tetrahydrofuran-3-yl)-1H-indazol-5-yl)-2-(2-fluoro-6-methoxyphenyl)pyrimidine-4-carboxamide] displayed a Ki below 100 nM.
